The values below come from ChEMBL document CHEMBL2046359, “Novel tricyclic indeno[2,1-d]pyrimidines with dual antiangiogenic and cytotoxic activities as potent antitumor agents” (Bioorg Med Chem, 2012).

As a reminder, the IC50 is the midpoint of a concentration-inhibition curve.

In assay [1] the target is Vascular endothelial growth factor receptor 2 (Homo sapiens, UniProt P35968). The format is cell-based, U-251.
Assay [2] concerns the target Epidermal growth factor receptor (Homo sapiens, UniProt P00533). The format is cell-based, A-431.
Assay [3] has as its target Platelet-derived growth factor receptor beta (Homo sapiens, UniProt P09619). Put plainly: Inhibition of PDGFRbeta in human SF539 cells pretreated for 60 mins measured after 10 mins by ELISA. In general terms: An ELISA detects its analyte on a solid surface through an enzyme-linked reagent.
The subject of assay [4] is A-431. Put plainly: Antiproliferative activity against human A431 cells after 48 hrs by CYQUANT assay. The format is functional, cell-based. As to conditions: A-431, 48 h.
Assay [5] in a line: Antiangiogenic activity in VEGF/bFGF-stimulated chicken embryo after 48 hrs by CAM assay. The format is functional, Gallus gallus.
The test system of assay [6] is B16-F10. Put plainly: Antitumor activity against mouse B16F10 cells allografted in NCr nu/nu mouse assessed as decrease in tumor metastasis at 35 mg/kg, ip administered three times weekly for 2 weeks.
Assay [7] deals with B16-F10. Put plainly: Antitumor activity against mouse B16F10 cells allografted in NCr nu/nu mouse assessed as inhibition of tumor angiogenesis at 35 mg/kg, ip administered three times weekly for 2 weeks.
Assay [8] deals with B16-F10. Put plainly: Antitumor activity against mouse B16F10 cells allografted in NCr nu/nu mouse assessed as tumor growth reduction at 35 mg/kg, ip administered three times weekly for 2 weeks.
The target in assay [9] is T1, Dihydrofolate reductase (Homo sapiens, UniProt P00374).
T1 sequence (P00374 whole entry): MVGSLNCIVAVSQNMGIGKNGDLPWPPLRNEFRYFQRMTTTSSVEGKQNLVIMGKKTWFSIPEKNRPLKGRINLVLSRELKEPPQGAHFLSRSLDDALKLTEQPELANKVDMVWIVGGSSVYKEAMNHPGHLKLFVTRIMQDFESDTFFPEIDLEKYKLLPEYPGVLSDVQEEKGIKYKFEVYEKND

Assay [10] can be described thus: Inhibition of Escherichia coli thymidylate synthase.
Assay [11] concerns the target T2, Bifunctional dihydrofolate reductase-thymidylate synthase (Toxoplasma gondii, UniProt Q07422).
T2 sequence (Q07422 whole entry): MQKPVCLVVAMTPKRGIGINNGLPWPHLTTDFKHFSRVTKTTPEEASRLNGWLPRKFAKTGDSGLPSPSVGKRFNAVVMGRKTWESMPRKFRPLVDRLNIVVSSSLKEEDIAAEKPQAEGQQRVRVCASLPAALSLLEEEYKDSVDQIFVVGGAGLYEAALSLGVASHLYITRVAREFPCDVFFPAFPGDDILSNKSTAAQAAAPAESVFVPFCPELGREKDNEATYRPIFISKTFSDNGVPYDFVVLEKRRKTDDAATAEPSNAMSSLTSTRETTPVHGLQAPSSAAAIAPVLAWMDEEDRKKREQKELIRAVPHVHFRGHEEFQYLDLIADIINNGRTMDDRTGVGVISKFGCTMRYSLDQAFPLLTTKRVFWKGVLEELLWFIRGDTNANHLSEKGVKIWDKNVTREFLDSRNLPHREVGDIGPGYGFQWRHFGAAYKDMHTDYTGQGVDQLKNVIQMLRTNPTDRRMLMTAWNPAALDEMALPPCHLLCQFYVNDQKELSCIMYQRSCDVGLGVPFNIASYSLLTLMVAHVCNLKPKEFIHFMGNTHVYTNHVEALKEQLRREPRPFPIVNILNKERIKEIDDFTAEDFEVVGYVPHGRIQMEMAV
Put plainly: Inhibition of Toxoplasma gondii thymidylate synthase.

Assay [12] addresses T2, Bifunctional dihydrofolate reductase-thymidylate synthase. The experiment in a line: Inhibition of Toxoplasma gondii DHFR.
For assay [13], the target named is Thymidylate synthase (Homo sapiens, UniProt P04818). Put plainly: Inhibition of human thymidylate synthase.
Assay [14] has as its target Dihydroorotate dehydrogenase (quinone), mitochondrial (Homo sapiens, UniProt Q02127). Put plainly: Inhibition of human DHODH.
For assay [15], the target named is T3, Dihydroorotate dehydrogenase (Plasmodium falciparum, UniProt Q54A96).
T3 sequence (Q54A96 whole entry): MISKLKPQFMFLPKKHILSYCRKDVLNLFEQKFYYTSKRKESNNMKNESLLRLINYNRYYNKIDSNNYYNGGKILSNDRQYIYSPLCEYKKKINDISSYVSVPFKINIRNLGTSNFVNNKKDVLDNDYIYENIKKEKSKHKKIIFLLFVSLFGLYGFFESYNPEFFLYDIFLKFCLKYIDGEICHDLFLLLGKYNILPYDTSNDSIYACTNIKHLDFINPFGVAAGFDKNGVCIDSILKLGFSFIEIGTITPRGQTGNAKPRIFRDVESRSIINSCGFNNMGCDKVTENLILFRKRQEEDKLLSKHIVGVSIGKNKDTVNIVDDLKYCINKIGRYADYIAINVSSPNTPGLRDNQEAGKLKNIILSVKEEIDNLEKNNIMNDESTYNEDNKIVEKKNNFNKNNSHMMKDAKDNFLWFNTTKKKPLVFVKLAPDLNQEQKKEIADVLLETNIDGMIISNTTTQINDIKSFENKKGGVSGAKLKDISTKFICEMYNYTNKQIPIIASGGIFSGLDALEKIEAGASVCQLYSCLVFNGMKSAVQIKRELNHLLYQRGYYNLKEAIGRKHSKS
Put plainly: Inhibition of Plasmodium falciparum DHODH.

Structures are written as SMILES. Calls of active or inactive are those of the source. The rule behind the calls is not given here.

Chain of Vascular endothelial growth factor receptor 2 (P35968 whole entry): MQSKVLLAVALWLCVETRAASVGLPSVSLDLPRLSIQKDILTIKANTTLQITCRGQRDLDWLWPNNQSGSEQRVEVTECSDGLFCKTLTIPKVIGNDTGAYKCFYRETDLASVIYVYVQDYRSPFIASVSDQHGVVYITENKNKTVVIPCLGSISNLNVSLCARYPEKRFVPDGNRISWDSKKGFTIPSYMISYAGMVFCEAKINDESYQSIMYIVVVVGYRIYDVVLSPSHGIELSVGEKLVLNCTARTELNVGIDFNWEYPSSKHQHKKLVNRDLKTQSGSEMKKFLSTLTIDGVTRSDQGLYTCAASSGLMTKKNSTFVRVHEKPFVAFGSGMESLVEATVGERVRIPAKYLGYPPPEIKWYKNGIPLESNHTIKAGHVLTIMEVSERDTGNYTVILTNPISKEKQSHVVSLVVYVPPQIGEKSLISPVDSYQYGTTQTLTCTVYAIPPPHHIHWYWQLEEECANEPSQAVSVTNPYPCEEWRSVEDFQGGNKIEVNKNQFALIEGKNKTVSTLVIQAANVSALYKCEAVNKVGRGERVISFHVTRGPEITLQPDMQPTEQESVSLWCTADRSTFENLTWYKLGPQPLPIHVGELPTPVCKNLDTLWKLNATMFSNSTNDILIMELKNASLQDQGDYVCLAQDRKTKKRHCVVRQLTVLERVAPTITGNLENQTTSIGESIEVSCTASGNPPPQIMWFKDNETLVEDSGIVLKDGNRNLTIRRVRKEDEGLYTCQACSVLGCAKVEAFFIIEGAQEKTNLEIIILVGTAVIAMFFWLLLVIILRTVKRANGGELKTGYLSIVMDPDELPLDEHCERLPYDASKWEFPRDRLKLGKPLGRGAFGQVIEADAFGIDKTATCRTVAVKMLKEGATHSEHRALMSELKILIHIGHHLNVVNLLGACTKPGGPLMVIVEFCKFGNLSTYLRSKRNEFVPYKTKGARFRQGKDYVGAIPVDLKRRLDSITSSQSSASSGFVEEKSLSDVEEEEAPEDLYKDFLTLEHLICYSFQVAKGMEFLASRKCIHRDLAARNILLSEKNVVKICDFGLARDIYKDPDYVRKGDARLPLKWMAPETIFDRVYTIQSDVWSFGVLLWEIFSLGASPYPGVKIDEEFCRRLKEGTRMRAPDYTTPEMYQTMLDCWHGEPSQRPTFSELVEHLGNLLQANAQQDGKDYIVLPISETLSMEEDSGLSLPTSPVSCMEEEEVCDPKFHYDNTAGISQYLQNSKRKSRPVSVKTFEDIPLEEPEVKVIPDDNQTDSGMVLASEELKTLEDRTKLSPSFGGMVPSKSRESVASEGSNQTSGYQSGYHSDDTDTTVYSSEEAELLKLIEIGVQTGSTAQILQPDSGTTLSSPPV
Chain of Epidermal growth factor receptor (P00533 whole entry): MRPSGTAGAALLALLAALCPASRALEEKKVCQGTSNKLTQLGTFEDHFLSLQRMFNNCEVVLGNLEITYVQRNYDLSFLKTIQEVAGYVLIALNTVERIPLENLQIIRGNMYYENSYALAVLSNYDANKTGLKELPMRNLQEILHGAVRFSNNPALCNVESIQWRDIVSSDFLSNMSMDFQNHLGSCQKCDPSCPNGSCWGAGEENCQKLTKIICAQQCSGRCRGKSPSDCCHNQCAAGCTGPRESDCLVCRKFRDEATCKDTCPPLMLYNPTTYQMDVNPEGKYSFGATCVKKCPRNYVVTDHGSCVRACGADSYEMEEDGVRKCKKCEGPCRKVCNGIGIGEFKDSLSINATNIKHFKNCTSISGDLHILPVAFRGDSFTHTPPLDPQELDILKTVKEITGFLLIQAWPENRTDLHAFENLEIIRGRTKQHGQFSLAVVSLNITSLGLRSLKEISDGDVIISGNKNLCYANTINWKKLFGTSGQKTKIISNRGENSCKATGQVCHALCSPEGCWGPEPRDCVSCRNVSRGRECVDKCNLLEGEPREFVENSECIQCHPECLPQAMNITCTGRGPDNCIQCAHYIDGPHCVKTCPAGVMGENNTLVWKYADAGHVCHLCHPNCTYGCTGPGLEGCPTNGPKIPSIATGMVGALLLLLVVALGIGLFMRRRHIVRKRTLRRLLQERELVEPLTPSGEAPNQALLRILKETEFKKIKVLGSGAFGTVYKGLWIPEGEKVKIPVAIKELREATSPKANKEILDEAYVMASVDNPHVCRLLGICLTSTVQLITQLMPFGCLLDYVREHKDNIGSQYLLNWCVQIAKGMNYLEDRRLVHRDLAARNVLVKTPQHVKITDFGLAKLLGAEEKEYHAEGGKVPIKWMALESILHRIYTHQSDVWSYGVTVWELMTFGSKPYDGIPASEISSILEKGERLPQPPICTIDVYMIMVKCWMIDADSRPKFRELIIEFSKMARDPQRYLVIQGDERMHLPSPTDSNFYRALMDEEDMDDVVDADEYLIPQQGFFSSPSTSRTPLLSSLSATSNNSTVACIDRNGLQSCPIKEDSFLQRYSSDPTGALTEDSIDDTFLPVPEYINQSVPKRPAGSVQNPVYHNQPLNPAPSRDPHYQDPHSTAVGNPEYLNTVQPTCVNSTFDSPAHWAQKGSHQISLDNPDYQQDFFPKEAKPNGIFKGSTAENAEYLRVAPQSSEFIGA
Chain of Thymidylate synthase (P04818 whole entry): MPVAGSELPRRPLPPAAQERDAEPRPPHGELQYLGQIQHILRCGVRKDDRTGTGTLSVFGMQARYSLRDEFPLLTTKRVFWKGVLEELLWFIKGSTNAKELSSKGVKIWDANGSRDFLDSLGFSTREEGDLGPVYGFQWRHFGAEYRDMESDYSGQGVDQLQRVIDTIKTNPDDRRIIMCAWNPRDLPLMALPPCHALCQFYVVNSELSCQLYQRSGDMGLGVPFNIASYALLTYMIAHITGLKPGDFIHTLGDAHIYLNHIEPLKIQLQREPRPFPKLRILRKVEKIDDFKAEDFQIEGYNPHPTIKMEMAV
Chain of Platelet-derived growth factor receptor beta (P09619 whole entry): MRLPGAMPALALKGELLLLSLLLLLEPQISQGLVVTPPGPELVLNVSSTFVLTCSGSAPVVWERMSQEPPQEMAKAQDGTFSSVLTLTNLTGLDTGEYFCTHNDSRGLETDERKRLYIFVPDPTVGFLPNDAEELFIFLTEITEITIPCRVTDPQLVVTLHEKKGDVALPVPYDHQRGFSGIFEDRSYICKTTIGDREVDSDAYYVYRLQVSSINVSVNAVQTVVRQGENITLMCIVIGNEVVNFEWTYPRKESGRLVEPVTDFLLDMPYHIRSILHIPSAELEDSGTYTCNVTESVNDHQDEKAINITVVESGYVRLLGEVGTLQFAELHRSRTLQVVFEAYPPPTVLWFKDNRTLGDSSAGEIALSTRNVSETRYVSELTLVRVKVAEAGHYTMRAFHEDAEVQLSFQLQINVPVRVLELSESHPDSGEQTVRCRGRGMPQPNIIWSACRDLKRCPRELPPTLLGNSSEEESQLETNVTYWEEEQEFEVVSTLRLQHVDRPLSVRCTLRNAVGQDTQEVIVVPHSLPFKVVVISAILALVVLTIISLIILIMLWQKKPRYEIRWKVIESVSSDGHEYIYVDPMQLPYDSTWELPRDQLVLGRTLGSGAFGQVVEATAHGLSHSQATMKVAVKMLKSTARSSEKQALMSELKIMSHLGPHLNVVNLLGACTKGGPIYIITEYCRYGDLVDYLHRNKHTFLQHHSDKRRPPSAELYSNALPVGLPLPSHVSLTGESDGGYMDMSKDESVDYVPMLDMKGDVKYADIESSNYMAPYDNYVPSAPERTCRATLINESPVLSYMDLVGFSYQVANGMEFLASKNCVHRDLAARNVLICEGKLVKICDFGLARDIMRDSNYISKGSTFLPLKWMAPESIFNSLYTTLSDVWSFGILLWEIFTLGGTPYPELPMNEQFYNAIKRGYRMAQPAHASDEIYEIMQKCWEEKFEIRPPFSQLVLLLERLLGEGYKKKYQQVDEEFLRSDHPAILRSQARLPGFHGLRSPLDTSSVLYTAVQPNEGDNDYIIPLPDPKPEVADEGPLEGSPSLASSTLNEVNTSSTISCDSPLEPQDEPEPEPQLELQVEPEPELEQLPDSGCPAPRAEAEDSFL
Chain of Dihydroorotate dehydrogenase (quinone), mitochondrial (Q02127 whole entry): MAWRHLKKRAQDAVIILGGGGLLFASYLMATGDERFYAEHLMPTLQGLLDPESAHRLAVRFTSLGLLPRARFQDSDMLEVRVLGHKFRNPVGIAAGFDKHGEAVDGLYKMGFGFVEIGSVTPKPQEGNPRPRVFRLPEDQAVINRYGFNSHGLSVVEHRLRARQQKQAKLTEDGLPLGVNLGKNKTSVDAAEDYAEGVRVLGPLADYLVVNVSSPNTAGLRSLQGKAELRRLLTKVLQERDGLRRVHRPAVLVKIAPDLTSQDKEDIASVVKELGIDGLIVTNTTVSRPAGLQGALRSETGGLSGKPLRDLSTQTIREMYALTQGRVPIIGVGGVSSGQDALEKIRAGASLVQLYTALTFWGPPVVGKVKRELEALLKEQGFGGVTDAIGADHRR

Regarding `Nc1nc2c(c(Nc3ccc(F)cc3)n1)-c1ccccc1C2`, the IC50 stood at 89.3 µM in [1]; 276 µM in assay [2]; 5.9 µM in assay [3]; 50.3 µM in assay [4]; 46.7 µM in assay [5].

In the case of `Cc1[nH]c(/C=C2\C(=O)Nc3ccccc32)c(C)c1CCC(=O)O`, the outcome in assay [6] and in assay [7] was Active. Besides, the “growth inhibition (GI)” value in [8] was “Active”.

Turning to `Nc1nc2c(c(Nc3ccc(Br)cc3)n1)-c1ccccc1C2`, the 50% inhibitory concentration (IC50) in assay [1] is 30.1 µM; in assay [3] it was 38.9 µM; in assay [4], 103 µM; in assay [5], 19.1 µM.

With `CC(C)c1ccc(Nc2nc(N)nc3c2-c2ccccc2C3)cc1`, the IC50 was more than 16 µM in assay [9]; more than 14 µM in assay [10]; more than 14 µM in [11]; 126 µM in [4]; more than 16 µM in assay [12]; more than 14 µM in assay [13].

As for `Nc1nc2c(c(Nc3ccc(Cl)cc3F)n1)-c1ccccc1C2`, the IC50 was more than 16 µM in [9]; more than 200 µM in assay [14]; more than 13 µM in assay [10]; more than 13 µM in assay [11]; more than 200 µM in assay [15]; 9.7 µM in [4]. For the same compound, the IC50 in assay [12] was more than 16 µM; in assay [13], more than 13 µM.

For the compound `Nc1nc2c(c(Nc3cccc(Cl)c3)n1)-c1ccccc1C2`, the results for the concentration for half-maximal inhibition (IC50) in [3] and in assay [4] were more than 500 µM and 235 µM, respectively.

Consider `Nc1nc2c(c(Nc3cccc(Br)c3)n1)-c1ccccc1C2`, for which the 50% inhibitory concentration (IC50) in assay [1] was more than 200 µM; in [9], more than 14 µM; in assay [14] it was more than 200 µM; in assay [10], more than 12 µM; in assay [11], more than 12 µM; in assay [15] it was more than 200 µM. Further, the half-inhibitory concentration (IC50) is more than 500 µM in assay [4], more than 14 µM in [12] and more than 12 µM in [13].

With `CC(C)c1ccccc1Nc1nc(N)nc2c1-c1ccccc1C2`, the IC50 is more than 200 µM in assay [1], more than 200 µM in assay [2], 126 µM in assay [4] and 2.12 µM in [5].

Regarding `Nc1nc2c(c(Nc3cccc(F)c3)n1)-c1ccccc1C2`, the IC50 was more than 200 µM in assay [14], more than 300 µM in [2], more than 200 µM in [15] and 9.8 µM in assay [4].

For the compound `COc1cccc(Nc2nc(N)nc3c2-c2ccccc2C3)c1`, the IC50 in assay [14] is more than 200 µM; in assay [2], more than 200 µM; in [15] it was more than 200 µM; in [4] it was 13.9 µM.

Turning to `Nc1nc2c(c(Nc3ccccc3)n1)-c1ccccc1C2`, the 50% inhibitory concentration (IC50) in assay [14] is more than 200 µM; in assay [2], more than 200 µM; in [15], more than 200 µM; in [4] it was 4.9 µM.

As for `Nc1nc2c(c(Nc3ccc(C(F)(F)F)cc3)n1)-c1ccccc1C2`, the 50% inhibitory concentration (IC50) in assay [1] was more than 200 µM; in [2], more than 300 µM; in assay [3] it was 23.1 µM; in assay [4] it was 306 µM; in assay [5], 8.1 µM.

As to `Nc1nc2c(c(Nc3ccc(F)c(Cl)c3)n1)-c1ccccc1C2`, the half-inhibitory concentration (IC50) in [9] is more than 16 µM; in assay [10] it was more than 13 µM; in [11], more than 13 µM; in [2], more than 200 µM; in assay [4], 158 µM; in assay [12], more than 16 µM. This compound registered an IC50 in [13] of more than 13 µM.
